Experimental data taken from patent US8535730B1, “Anticalculus oral composition” (Colgate-Palmolive Company, priority 1985, dated 2013).
Like-named read-outs stand apart in the source and are kept apart here.

How the values were obtained:
[1] = Procedure: The in vitro formation of HAP is measured titrimetrically via a pH stat procedure. Stock solutions of 0.1M CaCl2 and 0.1M NaH2PO4 are prepared fresh in carbonate-free deionized distilled water. To 23 ml CO2-free deionized water 1.0 ml. of the stock phosphate solution and 1.0 ml. of an aqueous solution of 1×10^−4 of the anticalculus agent being tested are added followed by 1.0 ml. of the stock calcium-chloride solution which initiates the reaction. The reaction is conducted at pH 7.4 under a nitrogen atmosphere. Consumption of 0.1N NaOH is recorded automatically from which the time required for crystal formation is determined.
[2] = test system: acid phosphatase, alkaline phosphatase, and inorganic pyrophosphatase; settings: for Percent Orthophosphate Released in 90 min.: pH 7.0, 37° C.
Procedure: Enzymatic hydrolysis is conducted in 100 millimolar morpholinopropane sulfonic acid—NaOH buffer solution (pH 7.0) containing 1.3 mg./ml of TSPP. Inhibitors of this invention are added (except to the control) to a final concentration of 1,000 ppm fluoride ion (from NaF) and 0.5% of the sodium salt of hydrolyzed methoxyethylene-maleic anhydride (1:1) copolymer, M.W. 70,000 (Gantrez S-97 Pharmaceutical Grade). Equal activities of acid phosphatase, alkaline phosphatase, and inorganic pyrophosphatase are then added to yield a total phosphatase activity of 0.3 units/ml. Samples of the test solution are taken and total orthophosphate available in each sample measured after 3 hours hydrolysis in 4N HCl at 100° C. The reaction mixture is incubated at 37° C. with shaking and aliquots taken at appropriate times through at least 90 minutes for orthophosphate determination.

## O=P([O-])([O-])OP(=O)([O-])[O-].[K+].[K+].[K+].[K+] [TKPP, tetrapotassium pyrophosphate]
[1]; water, saliva, pyrophosphatase, alkaline phosphatase, TKPP instead of TSPP
  HAP formation inhibition results compared with TSPP (in words): Substantially the same results
[2]; equivalent amounts of TKPP substituted for TSPP, with and without inhibitors
  Enzymatic hydrolysis results compared with TSPP (in words): Substantially the same results

## O=P([O-])([O-])OP(=O)([O-])[O-].[Na+].[Na+].[Na+].[Na+] [TSPP, Tetrasodium pyrophosphate]
[1]; Water, pH 7.4, nitrogen atmosphere
  Time of Crystal Growth Inhibition: 0.8 h
[1]; in water
  Delay of HAP formation (in words): significantly delays HAP formation
[1]; incubated with Alk. Phosphatase, pH 7.4
  Time of Crystal Growth Inhibition: 0.0 h
[1]; incubated with Pyrophosphatase, pH 7.4
  Time of Crystal Growth Inhibition: 0.3 h
[1]; incubated with Saliva, pH 7.4
  Time of Crystal Growth Inhibition: 0.4 h
[1]; incubated with pyrophosphatase and alkaline phosphatase
  Delay period of HAP formation (in words): drastically reduces the delay period
[1]; incubated with saliva
  Effectiveness in delaying HAP formation (in words): drastically reduced
[2]; Control (no inhibitors), 1.3 mg./ml TSPP, total phosphatase activity 0.3 units/ml
  Percent Orthophosphate Released in 90 min.: 98%
[2]; With Inhibitors: 1,000 ppm fluoride ion (from NaF) and 0.5% Gantrez S-97, 0.3 units/ml phosphatase
  Percent Orthophosphate Released in 90 min.: 58%
[2]; With inhibitors vs control, 90 min.
  Percent Relative Protection (reduction of hydrolysis of P-O-P bonds with inhibitors): 41%
